# Patent US8367658B2, “Pyrazin-2-yl-pyridin-2-yl-amine and pyrazin-2-yl-pyrimidin-4-yl-amine compounds and their use” (Cancer Research Technology Limited, priority 2007, dated 2013)
# Biological target: T1, CHK1 (Homo sapiens, UniProt O14757)
# T1 sequence (O14757 1-476): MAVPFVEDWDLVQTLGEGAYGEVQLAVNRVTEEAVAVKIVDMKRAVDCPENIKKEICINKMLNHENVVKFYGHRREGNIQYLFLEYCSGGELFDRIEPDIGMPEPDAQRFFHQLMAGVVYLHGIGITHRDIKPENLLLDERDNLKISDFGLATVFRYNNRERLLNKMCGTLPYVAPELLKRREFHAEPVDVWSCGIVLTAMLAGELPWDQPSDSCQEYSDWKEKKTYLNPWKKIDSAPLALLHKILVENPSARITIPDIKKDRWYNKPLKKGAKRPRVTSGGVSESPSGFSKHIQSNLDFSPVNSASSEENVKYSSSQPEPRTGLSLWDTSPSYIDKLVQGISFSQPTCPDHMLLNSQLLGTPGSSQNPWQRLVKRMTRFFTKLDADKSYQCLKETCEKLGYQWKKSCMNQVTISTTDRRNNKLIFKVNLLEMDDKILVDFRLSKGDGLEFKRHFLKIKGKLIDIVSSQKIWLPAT
# Assay: CHK1 kinase function inhibition assay (DELFIA, phosphorylation of a CDC25C peptide)
# Assay type: biochemical
# Conditions: CHK1 1 nM, ATP 30 μM, 30 minutes at room temperature
# Protocol: Measurement of Inhibition of CHK1 Kinase Function
# CHK1 kinase function was measured in a DELFIA® assay in order to monitor phosphorylation of a CDC25C peptide using a specific phospho antibody.
# The reaction mixture was incubated for 30 minutes at room temperature and then stopped by the addition of buffer (125 μL) containing 40 mM EDTA, 0.05% Tween 20, 0.1% BSA in TBS (10× concentrate, Sigma). An aliquot (100 μL) of the stopped reaction mixture was transferred to a black neutravidin-coated plate (Perbio) and incubated for 1 hour on a shaker (Titertek, Flow Laboratories) at room temperature. […] The plates were washed a further four times with wash buffer before the addition of enhancement solution (100 μL/well, PerkinElmer Life Sciences).
row,Structure (SMILES),IC50 [µM]
1,"N#Cc1cnc(Nc2cc(NC3CCCCC3)c(N)cn2)cn1 [Compound Y-045, 5-(5-Amino-4-(cyclohexylamino)pyridin-2-ylamino)pyrazine-2-carbonitrile]",1 to 10
2,"CN(C)CC(=O)Nc1cnc(Nc2cnc(C#N)cn2)cc1N[C@H]1CCCNC1 [Compound Y-046, (S)—N-(6-(5-Cyanopyrazin-2-ylamino)-4-(piperidin-3-ylamino)pyridin-3-yl)-2-(dimethylamino)acetamide]",1 to 10
3,"N#Cc1cnc(Nc2cc(NC[C@H]3CCCNC3)c(N)cn2)cn1 [Compound Y-047, (S)-5-(5-Amino-4-(piperidin-3-ylmethylamino)pyridin-2-ylamino)pyrazine-2-carbonitrile]",≤ 0.1
4,"N#Cc1cnc(Nc2cc(NC[C@@H]3CCCNC3)c(N)cn2)cn1 [Compound Y-048, (R)-5-(5-Amino-4-(piperidin-3-ylmethylamino)pyridin-2-ylamino)pyrazine-2-carbonitrile]",≤ 0.1
5,"N#Cc1cnc(Nc2cc(NCCC(N)c3ccccc3)c(N)cn2)cn1 (stereo not shown) [Compound Y-050, 5-(5-Amino-4-(3-amino-3-phenylpropylamino)pyridin-2-ylamino)pyrazine-2-carbonitrile]",1 to 10
6,"N#Cc1cnc(Nc2cc(NCC3CCCCN3)c(N)cn2)cn1 (stereo not shown) [Compound Y-051, 5-(5-Amino-4-(piperidin-2-ylmethylamino)pyridin-2-ylamino)pyrazine-2-carbonitrile]",1 to 10
7,"N#Cc1cnc(Nc2cc(NCCC[C@H](N)C(=O)Nc3ccccc3)c(N)cn2)cn1 [Compound Y-052, (S)-2-Amino-5-(5-amino-2-(5-cyanopyrazin-2-ylamino)pyridin-4-ylamino)-N-phenylpentanamide]",1 to 10
8,"N#Cc1cnc(Nc2cc(NCC3CCCNC3)c(NC(=O)CCC3CCNCC3)cn2)cn1 (stereo not shown) [Compound Y-053, N-(6-(5-Cyanopyrazin-2-ylamino)-4-(piperidin-3-ylmethylamino)pyridin-3-yl)-3-(piperidin-4-yl)propanamide]",≤ 0.1
9,"Cc1ncsc1CCC(=O)Nc1cnc(Nc2cnc(C#N)cn2)cc1NCC1CCCNC1 (stereo not shown) [Compound Y-054, N-(6-(5-Cyanopyrazin-2-ylamino)-4-(piperidin-3-ylmethylamino)pyridin-3-yl)-3-(4-methylthiazol-5-yl)propanamide]",1 to 10
10,"N#Cc1cnc(Nc2cc(NCC3CCCNC3)c(NC(=O)CCN3CCOCC3)cn2)cn1 (stereo not shown) [Compound Y-055, N-(6-(5-Cyanopyrazin-2-ylamino)-4-(piperidin-3-ylmethylamino)pyridin-3-yl)-3-morpholinopropanamide]",0.1 to 1
11,"N#Cc1cnc(Nc2cc(NCC3CCCNC3)c(-n3cccc3)cn2)cn1 (stereo not shown) [Compound Y-056, 5-(4-(Piperidin-3-ylmethylamino)-5-(1H-pyrrol-1-yl)pyridin-2-ylamino)pyrazine-2-carbonitrile]",≤ 0.1
12,"N#Cc1cnc(Nc2cc(N[C@@H]3CCCNC3)c(-n3cccc3)cn2)cn1 [Compound Y-057, (R)-5-(4-(Piperidin-3-ylamino)-5-(1H-pyrrol-1-yl)pyridin-2-ylamino)pyrazine-2-carbonitrile]",0.1 to 1
13,"CN1CCC(Nc2cc(Nc3cnc(C#N)cn3)ncc2-n2cccc2)CC1 [Compound Y-058, 5-(4-(1-Methylpiperidin-4-ylamino)-5-(1H-pyrrol-1-yl)pyridin-2-ylamino)pyrazine-2-carbonitrile]",≤ 0.1
14,"N#Cc1cnc(Nc2cc(NCC3CCCNC3)c(N3CCCC3)cn2)cn1 (stereo not shown) [Compound Y-059, 5-(4-(Piperidin-3-ylmethylamino)-5-(pyrrolidin-1-yl)pyridin-2-ylamino)pyrazine-2-carbonitrile]",≤ 0.1
15,"N#Cc1cnc(Nc2cc(NCC3CCCNC3)c(N3CC[C@H](O)C3)cn2)cn1 (stereo partly drawn) [Compound Y-060, 5-(5-((S)-3-Hydroxypyrrolidin-1-yl)-4-(piperidin-3-ylmethylamino)pyridin-2-ylamino)pyrazine-2-carbonitrile]",≤ 0.1
16,"N#Cc1cnc(Nc2cc(NCC3CCCNC3)c(-n3ccc(CN4CCOCC4)c3)cn2)cn1 (stereo not shown) [Compound Y-062, 5-(5-(3-(Morpholinomethyl)-1H-pyrrol-1-yl)-4-(piperidin-3-ylmethylamino)pyridin-2-ylamino)pyrazine-2-carbonitrile]",≤ 0.1
17,"N#Cc1cnc(Nc2cc(NCC3CCCNC3)c(-n3ccc(CO)c3)cn2)cn1 (stereo not shown) [Compound Y-063, 5-(5-(3-(Hydroxymethyl)-1H-pyrrol-1-yl)-4-(piperidin-3-ylmethylamino)pyridin-2-ylamino)pyrazine-2-carbonitrile]",≤ 0.1
18,"CCOC(=O)c1ccn(-c2cnc(Nc3cnc(C#N)cn3)cc2NCC2CCCNC2)c1 (stereo not shown) [Compound Y-064, Ethyl 1-(6-(5-cyanopyrazin-2-ylamino)-4-(piperidin-3-ylmethylamino)pyridin-3-yl)-1H-pyrrole-3-carboxylate]",≤ 0.1
19,"N#Cc1cnc(Nc2cc(NCC3CCCNC3)c(-n3ccc(C(=O)O)c3)cn2)cn1 (stereo not shown) [Compound Y-065, 1-(6-(5-Cyanopyrazin-2-ylamino)-4-(piperidin-3-ylmethylamino)pyridin-3-yl)-1H-pyrrole-3-carboxylic acid]",0.1 to 1
20,"COC(=O)c1cnc(Nc2cnc(C#N)cn2)cc1N(C)C1CCN(C)CC1 [Compound Y-070, Methyl 6-(5-cyanopyrazin-2-ylamino)-4-(methyl(1-methylpiperidin-4-yl)amino)nicotinate]",≤ 0.1
21,"COC(=O)c1cnc(Nc2cnc(C#N)cn2)cc1NC1CC2CCCC(C1)N2C (stereo not shown) [Compound Y-071, Methyl 6-(5-cyanopyrazin-2-ylamino)-4-(9-methyl-9-azabicyclo[3.3.1]-nonan-3-ylamino)nicotinate]",0.1 to 1
22,"CCCN1C2CCC1CC(Nc1cc(Nc3cnc(C#N)cn3)ncc1C(=O)OC)C2 (stereo not shown) [Compound Y-079, Methyl 6-(5-cyanopyrazin-2-ylamino)-4-(8-propyl-8-azabicyclo[3.2.1]octan-3-ylamino)nicotinate]",≤ 0.1
23,"COC(=O)c1cnc(Nc2cnc(C#N)cn2)cc1NC1CC2CCC(C1)N2Cc1ccccn1 (stereo not shown) [Compound Y-080, Methyl 6-(5-cyanopyrazin-2-ylamino)-4-(8-(pyridin-2-ylmethyl)-8-azabicyclo[3.2.1]octan-3-ylamino)nicotinate]",≤ 0.1

# Results, then the compound that gave them:
row,IC50 [µM],Structure (SMILES)
1,0.1 to 1,"N#Cc1cnc(Nc2cc(NCC3CCCNC3)c(-n3ccc(C(=O)NCCO)c3)cn2)cn1 (stereo not shown) [Compound Y-066, 1-(6-(5-Cyanopyrazin-2-ylamino)-4-(piperidin-3-ylmethylamino)pyridin-3-yl)-N-(2-hydroxyethyl)-1H-pyrrole-3-carboxamide]"
2,≤ 0.1,"N#Cc1cnc(Nc2cc(NCC3CCCNC3)c(-n3ccc(C(=O)NCCCO)c3)cn2)cn1 (stereo not shown) [Compound Y-067, 1-(6-(5-Cyanopyrazin-2-ylamino)-4-(piperidin-3-ylmethylamino)pyridin-3-yl)-N-(3-hydroxypropyl)-1H-pyrrole-3-carboxamide]"
3,1 to 10,"N#Cc1cnc(Nc2cc(OCC3CCOC3)c(NC(=O)CCC3CCNCC3)cn2)cn1 (stereo not shown) [Compound Y-068, N-(6-(5-Cyanopyrazin-2-ylamino)-4-((tetrahydrofuran-3-yl)methoxy)pyridin-3-yl)-3-(piperidin-4-yl)propanamide]"
4,1 to 10,"N#Cc1cnc(Nc2cc(OCC3CCOCC3)c(NC(=O)CCC3CCNCC3)cn2)cn1 [Compound Y-069, N-(6-(5-Cyanopyrazin-2-ylamino)-4-((tetrahydro-2H-pyran-4-yl)methoxy)pyridin-3-yl)-3-(piperidin-4-yl)propanamide]"
5,≤ 0.1,"COC(=O)c1cnc(Nc2cnc(C#N)cn2)cc1NCC1CCCCN1 (stereo not shown) [Compound Y-073, Methyl 6-(5-cyanopyrazin-2-ylamino)-4-(piperidin-2-ylmethylamino)-nicotinate]"
6,≤ 0.1,"COC(=O)c1cnc(Nc2cnc(C#N)cn2)cc1NC1CCCNCC1 (stereo not shown) [Compound Y-076, Methyl 4-(azepan-4-ylamino)-6-(5-cyanopyrazin-2-ylamino)nicotinate]"
7,≤ 0.1,"CCCN1CCC(Nc2cc(Nc3cnc(C#N)cn3)ncc2C(=O)OC)CC1 [Compound Y-077, Methyl 6-(5-cyanopyrazin-2-ylamino)-4-(1-propylpiperidin-4-ylamino)nicotinate]"
8,≤ 0.1,"COC(=O)c1cnc(Nc2cnc(C#N)cn2)cc1NC1CCNCC1 [Compound Y-078, Methyl 6-(5-cyanopyrazin-2-ylamino)-4-(piperidin-4-ylamino)nicotinate]"
9,≤ 0.1,"COC(=O)c1cnc(Nc2cnc(C#N)cn2)cc1NCC[C@H]1CNCCO1 [Compound Y-082, (S)-Methyl 6-(5-cyanopyrazin-2-ylamino)-4-(2-(morpholin-2-yl)ethylamino)nicotinate]"
10,≤ 0.1,"COC(=O)c1cnc(Nc2cnc(C#N)cn2)cc1NCC1(F)CCNCC1 [Compound Y-083, Methyl 6-(5-Cyanopyrazin-2-ylamino)-4-((4-fluoropiperidin-4-yl)methylamino)nicotinate]"
11,≤ 0.1,"COCCNC(=O)c1cnc(Nc2cnc(C#N)cn2)cc1NCC1CCNCC1 [Compound Y-084, 6-(5-Cyanopyrazin-2-ylamino)-N-(2-methoxyethyl)-4-(piperidin-4-ylmethylamino)nicotinamide]"
